Assay results taken from PMC3399817 (PLoS ONE, 2012).

Experiments:
Experiment in all cases: KINOMEscan
Format in all cases: binding
CAMK2D = molecular target: T1, CAMK2D (Homo sapiens, UniProt Q13557); conditions: 1 uM
T1 construct: purchased Ambit KINOMEscan (DiscoverX)
Outline: (§1)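 Panel profiling at one dose (1 μM) identifies kinases prevented from binding substrate by the test molecule.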

ROS1 = molecular target: T2, ROS1 (Homo sapiens, UniProt P08922); conditions: ROS1, 1 uM
T2 construct: purchased Ambit KINOMEscan (DiscoverX)
Outline: as §1

AURKB = molecular target: T3, AURKB (Homo sapiens, UniProt Q96GD4); conditions: 1 uM
T3 construct: purchased Ambit KINOMEscan (DiscoverX)
T3 sequence (Q96GD4 whole entry): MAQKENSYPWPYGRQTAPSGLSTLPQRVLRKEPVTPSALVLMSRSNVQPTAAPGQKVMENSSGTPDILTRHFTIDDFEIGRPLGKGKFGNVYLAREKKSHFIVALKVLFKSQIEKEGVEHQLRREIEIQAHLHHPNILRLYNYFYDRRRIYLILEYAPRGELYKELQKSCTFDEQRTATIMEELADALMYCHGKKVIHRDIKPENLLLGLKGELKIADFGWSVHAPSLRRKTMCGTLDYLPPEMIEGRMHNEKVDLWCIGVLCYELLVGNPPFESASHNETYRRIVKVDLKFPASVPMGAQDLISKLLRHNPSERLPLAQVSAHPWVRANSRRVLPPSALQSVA
Outline: as §1

EGFR(E746-A750del) = molecular target: T4, EGFR(E746-A750del) (Homo sapiens, UniProt P00533, DEL746-750); conditions: 1 uM
T4 construct: purchased Ambit KINOMEscan (DiscoverX)
Outline: as §1

GCN2(Kin.Dom.2,S808G) = molecular target: T5, GCN2(Kin.Dom.2,S808G) (Homo sapiens, UniProt Q9P2K8, S808G); conditions: 1 uM
T5 construct: GCN2(Kin.Dom.2,S808G); purchased Ambit KINOMEscan (DiscoverX)
Outline: as §1

KIT(V559D,T670I) = molecular target: T6, KIT(V559D,T670I) (Homo sapiens, UniProt P10721, T670I/V559D); conditions: 1 uM
T6 construct: purchased Ambit KINOMEscan (DiscoverX)
Outline: as §1

PIK3CA(E542K) = molecular target: T7, PIK3CA(E542K) (Homo sapiens, UniProt P42336, E542K); conditions: 1 uM
T7 construct: purchased Ambit KINOMEscan (DiscoverX)
Outline: as §1

PFTK1 = molecular target: T8, PFTK1 (Homo sapiens, UniProt O94921); conditions: PFTK1, 1 uM
T8 construct: purchased Ambit KINOMEscan (DiscoverX)
T8 sequence (O94921 whole entry): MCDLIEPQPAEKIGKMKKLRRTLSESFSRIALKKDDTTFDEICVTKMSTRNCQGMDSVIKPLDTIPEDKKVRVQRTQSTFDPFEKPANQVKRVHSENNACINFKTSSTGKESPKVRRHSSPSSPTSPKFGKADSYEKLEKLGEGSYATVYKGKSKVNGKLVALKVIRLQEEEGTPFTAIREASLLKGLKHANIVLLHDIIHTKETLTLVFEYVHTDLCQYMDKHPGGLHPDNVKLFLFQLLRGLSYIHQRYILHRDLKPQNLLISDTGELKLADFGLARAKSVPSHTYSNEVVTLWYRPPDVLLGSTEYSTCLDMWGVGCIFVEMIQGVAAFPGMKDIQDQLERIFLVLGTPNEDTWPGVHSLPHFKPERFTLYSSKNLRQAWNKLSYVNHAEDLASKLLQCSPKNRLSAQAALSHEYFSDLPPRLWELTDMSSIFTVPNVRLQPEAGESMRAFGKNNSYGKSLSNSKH
Outline: as §1

ROCK2 = molecular target: T9, ROCK2 (Homo sapiens, UniProt O75116); conditions: for % binding compared to no inhibitor control: ROCK2, 1 uM
T9 construct: purchased Ambit KINOMEscan (DiscoverX)
T9 sequence (O75116 whole entry): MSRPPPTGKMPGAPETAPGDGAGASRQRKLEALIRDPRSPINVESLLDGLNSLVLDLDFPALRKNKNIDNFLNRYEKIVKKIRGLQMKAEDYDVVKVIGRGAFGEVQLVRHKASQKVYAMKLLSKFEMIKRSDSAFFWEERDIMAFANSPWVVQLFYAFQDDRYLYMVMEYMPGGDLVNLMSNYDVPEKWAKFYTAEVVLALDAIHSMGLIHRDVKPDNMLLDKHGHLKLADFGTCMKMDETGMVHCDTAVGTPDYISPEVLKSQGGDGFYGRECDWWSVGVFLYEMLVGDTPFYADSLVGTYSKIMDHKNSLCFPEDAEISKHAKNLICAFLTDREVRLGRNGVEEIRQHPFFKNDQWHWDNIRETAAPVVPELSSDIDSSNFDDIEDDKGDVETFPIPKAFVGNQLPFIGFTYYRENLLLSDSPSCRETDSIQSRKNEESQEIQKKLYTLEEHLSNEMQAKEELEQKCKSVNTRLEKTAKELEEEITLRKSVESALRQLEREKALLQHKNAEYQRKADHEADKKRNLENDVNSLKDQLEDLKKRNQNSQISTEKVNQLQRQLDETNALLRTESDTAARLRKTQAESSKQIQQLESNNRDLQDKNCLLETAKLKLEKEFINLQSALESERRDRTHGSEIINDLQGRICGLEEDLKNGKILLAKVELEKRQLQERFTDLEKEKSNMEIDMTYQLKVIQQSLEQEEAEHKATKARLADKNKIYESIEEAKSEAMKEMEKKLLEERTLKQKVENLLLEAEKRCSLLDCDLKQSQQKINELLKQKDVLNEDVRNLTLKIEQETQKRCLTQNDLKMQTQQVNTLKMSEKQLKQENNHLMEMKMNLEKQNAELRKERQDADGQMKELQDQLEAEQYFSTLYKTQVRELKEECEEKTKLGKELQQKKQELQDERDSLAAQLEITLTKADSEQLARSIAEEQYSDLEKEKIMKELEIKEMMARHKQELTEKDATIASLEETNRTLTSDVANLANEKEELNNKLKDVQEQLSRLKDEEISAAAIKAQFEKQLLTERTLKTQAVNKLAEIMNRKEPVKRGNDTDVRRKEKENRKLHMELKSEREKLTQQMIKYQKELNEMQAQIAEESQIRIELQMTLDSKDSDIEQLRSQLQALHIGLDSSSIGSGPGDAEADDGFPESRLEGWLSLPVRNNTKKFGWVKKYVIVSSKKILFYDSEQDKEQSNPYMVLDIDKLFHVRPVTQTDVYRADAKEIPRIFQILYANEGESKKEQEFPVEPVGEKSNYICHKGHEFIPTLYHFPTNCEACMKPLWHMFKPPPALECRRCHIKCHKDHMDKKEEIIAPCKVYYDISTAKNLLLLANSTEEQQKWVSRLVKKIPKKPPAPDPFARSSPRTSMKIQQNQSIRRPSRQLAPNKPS
Outline: as §1

HIPK1 = molecular target: T10, HIPK1 (Homo sapiens, UniProt Q86Z02); conditions: for % binding compared to no inhibitor control: HIPK1, 1 uM
T10 construct: purchased Ambit KINOMEscan (DiscoverX)
T10 sequence (Q86Z02 whole entry): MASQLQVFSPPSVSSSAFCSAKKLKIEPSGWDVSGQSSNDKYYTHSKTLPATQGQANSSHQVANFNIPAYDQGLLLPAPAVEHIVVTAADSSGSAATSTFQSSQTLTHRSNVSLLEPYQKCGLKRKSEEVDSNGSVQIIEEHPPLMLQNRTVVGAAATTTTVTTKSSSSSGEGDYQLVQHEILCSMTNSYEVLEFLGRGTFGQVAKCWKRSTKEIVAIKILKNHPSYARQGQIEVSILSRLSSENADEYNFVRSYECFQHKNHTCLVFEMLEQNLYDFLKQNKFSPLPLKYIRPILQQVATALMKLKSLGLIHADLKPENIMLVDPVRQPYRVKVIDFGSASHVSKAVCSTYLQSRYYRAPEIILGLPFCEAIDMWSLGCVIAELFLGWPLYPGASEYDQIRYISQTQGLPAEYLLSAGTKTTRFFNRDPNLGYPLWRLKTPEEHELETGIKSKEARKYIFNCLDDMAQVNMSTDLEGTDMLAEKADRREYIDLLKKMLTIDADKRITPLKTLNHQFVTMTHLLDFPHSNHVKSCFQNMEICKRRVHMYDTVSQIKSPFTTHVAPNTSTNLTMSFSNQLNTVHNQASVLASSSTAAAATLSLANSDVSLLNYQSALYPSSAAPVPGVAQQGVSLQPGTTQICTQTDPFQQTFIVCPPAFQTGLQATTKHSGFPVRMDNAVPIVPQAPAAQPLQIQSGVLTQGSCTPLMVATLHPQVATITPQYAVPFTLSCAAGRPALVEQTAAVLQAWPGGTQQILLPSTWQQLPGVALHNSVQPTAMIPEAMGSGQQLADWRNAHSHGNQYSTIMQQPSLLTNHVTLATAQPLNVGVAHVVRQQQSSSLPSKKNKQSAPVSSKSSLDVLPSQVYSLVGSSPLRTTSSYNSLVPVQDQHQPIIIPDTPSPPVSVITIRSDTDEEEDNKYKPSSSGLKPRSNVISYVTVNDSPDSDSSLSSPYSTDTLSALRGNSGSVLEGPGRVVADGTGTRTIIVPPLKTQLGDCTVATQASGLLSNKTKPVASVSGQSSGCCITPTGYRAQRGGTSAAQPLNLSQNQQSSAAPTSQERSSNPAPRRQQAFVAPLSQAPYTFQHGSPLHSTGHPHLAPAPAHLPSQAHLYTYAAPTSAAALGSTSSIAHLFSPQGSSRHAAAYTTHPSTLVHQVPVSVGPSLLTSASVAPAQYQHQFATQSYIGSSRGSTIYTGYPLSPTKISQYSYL
Outline: as §1

EPHB2 = molecular target: T11, EPHB2 (Homo sapiens, UniProt P29323); conditions: EPHB2, 1 uM
T11 construct: purchased Ambit KINOMEscan (DiscoverX)
Outline: as §1

DAPK2 = molecular target: T12, DAPK2 (Homo sapiens, UniProt Q9UIK4); conditions: DAPK2, 1 uM
T12 construct: purchased Ambit KINOMEscan (DiscoverX)
Outline: as §1

PAK6 = molecular target: T13, PAK6 (Homo sapiens, UniProt Q9NQU5); conditions: PAK6, 1 uM
T13 construct: purchased Ambit KINOMEscan (DiscoverX)
Outline: as §1

TXK = molecular target: T14, TXK (Homo sapiens, UniProt P42681); conditions: 1 uM
T14 construct: purchased Ambit KINOMEscan (DiscoverX)
Outline: as §1

PLK1 = molecular target: T15, PLK1 (Homo sapiens, UniProt P53350); conditions: PLK1, 1 uM
T15 construct: purchased Ambit KINOMEscan (DiscoverX)
Outline: as §1

DDR1 = molecular target: T16, DDR1 (Homo sapiens, UniProt Q08345); conditions: DDR1, 1 uM
T16 construct: purchased Ambit KINOMEscan (DiscoverX)
Outline: as §1

STK35 = molecular target: T17, STK35 (Homo sapiens, UniProt Q8TDR2); conditions: STK35, 1 uM
T17 construct: purchased Ambit KINOMEscan (DiscoverX)
Outline: as §1

AKT2 = molecular target: T18, AKT2 (Homo sapiens, UniProt P31751); conditions: AKT2, 1 uM
T18 construct: purchased Ambit KINOMEscan (DiscoverX)
Outline: as §1

JNK2 = molecular target: T19, JNK2 (Homo sapiens, UniProt P45984); conditions: JNK2, 1 uM
T19 construct: purchased Ambit KINOMEscan (DiscoverX)
Outline: as §1

ERK4 = molecular target: T20, ERK4 (Homo sapiens, UniProt P31152); conditions: ERK4, 1 uM
T20 construct: purchased Ambit KINOMEscan (DiscoverX)
Outline: as §1

TLK1 = molecular target: T21, TLK1 (Homo sapiens, UniProt Q9UKI8); conditions: TLK1, 1 uM
T21 construct: purchased Ambit KINOMEscan (DiscoverX)
Outline: as §1

FGFR1 = molecular target: T22, FGFR1 (Homo sapiens, UniProt P11362); conditions: FGFR1, 1 uM
T22 construct: purchased Ambit KINOMEscan (DiscoverX)
Outline: as §1

WEE1 = molecular target: T23, WEE1 (Homo sapiens, UniProt P30291); conditions: WEE1, 1 uM
T23 construct: purchased Ambit KINOMEscan (DiscoverX)
Outline: as §1

EGFR = molecular target: T24, EGFR (Homo sapiens, UniProt P00533); conditions: 1 uM
T24 construct: purchased Ambit KINOMEscan (DiscoverX)
Outline: as §1

ZAP70 = molecular target: T25, ZAP70 (Homo sapiens, UniProt P43403); conditions: ZAP70, 1 uM
T25 construct: purchased Ambit KINOMEscan (DiscoverX)
Outline: as §1

RIPK2 = molecular target: T26, RIPK2 (Homo sapiens, UniProt O43353); conditions: RIPK2, 1 uM
T26 construct: purchased Ambit KINOMEscan (DiscoverX)
T26 sequence (O43353 whole entry): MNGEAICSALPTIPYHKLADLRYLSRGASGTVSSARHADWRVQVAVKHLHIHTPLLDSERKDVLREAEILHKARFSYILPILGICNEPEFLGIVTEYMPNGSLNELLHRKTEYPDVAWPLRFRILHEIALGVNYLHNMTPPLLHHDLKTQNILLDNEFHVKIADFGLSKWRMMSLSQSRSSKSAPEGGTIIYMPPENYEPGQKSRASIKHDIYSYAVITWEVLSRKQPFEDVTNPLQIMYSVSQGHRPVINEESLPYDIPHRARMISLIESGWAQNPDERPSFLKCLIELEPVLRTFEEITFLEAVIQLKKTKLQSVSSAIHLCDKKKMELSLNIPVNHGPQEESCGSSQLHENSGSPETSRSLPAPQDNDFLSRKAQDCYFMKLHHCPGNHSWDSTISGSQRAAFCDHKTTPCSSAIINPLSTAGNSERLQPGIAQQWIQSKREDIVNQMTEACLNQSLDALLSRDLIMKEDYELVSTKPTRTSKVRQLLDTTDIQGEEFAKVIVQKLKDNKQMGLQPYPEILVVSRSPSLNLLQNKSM
Outline: as §1

TNNI3K = molecular target: T27, TNNI3K (Homo sapiens, UniProt Q59H18); conditions: 1 uM
T27 construct: purchased Ambit KINOMEscan (DiscoverX)
Outline: as §1

LZK = molecular target: T28, LZK (Homo sapiens, UniProt O43283); conditions: 1 uM
T28 construct: purchased Ambit KINOMEscan (DiscoverX)
Outline: as §1

EGFR(G719S) = molecular target: T29, EGFR(G719S) (Homo sapiens, UniProt P00533, G719S); conditions: 1 uM
T29 construct: purchased Ambit KINOMEscan (DiscoverX)
Outline: as §1

[1] = molecular target: T30, JAK1(JH1domain-catalytic) (Homo sapiens, UniProt P23458); conditions: 1 uM
T30 construct: JAK1(JH1domain-catalytic); purchased Ambit KINOMEscan (DiscoverX)
T30 sequence (P23458 875-1154 limits assumed): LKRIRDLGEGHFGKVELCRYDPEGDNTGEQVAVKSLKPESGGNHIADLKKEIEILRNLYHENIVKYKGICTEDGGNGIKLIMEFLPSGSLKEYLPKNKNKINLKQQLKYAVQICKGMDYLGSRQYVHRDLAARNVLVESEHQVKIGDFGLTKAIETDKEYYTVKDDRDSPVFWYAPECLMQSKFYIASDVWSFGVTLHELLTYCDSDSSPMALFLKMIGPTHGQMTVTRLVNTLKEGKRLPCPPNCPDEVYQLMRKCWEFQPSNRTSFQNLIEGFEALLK
Outline: as §1

TAK1 = molecular target: T31, TAK1 (Homo sapiens, UniProt O43318); conditions: TAK1, 1 uM
T31 construct: purchased Ambit KINOMEscan (DiscoverX)
Outline: as §1

CAMKK2 = molecular target: T32, CAMKK2 (Homo sapiens, UniProt Q96RR4); conditions: CAMKK2, 1 uM
T32 construct: purchased Ambit KINOMEscan (DiscoverX)
Outline: as §1

PRKCQ = molecular target: T33, PRKCQ (Homo sapiens, UniProt Q04759); conditions: 1 uM
T33 construct: purchased Ambit KINOMEscan (DiscoverX)
Outline: as §1

CSNK1G3 = molecular target: T34, CSNK1G3 (Homo sapiens, UniProt Q9Y6M4); conditions: CSNK1G3, 1 uM
T34 construct: purchased Ambit KINOMEscan (DiscoverX)
Outline: as §1

FGFR3 = molecular target: T35, FGFR3 (Homo sapiens, UniProt P22607); conditions: FGFR3, 1 uM
T35 construct: purchased Ambit KINOMEscan (DiscoverX)
T35 sequence (P22607 23-806): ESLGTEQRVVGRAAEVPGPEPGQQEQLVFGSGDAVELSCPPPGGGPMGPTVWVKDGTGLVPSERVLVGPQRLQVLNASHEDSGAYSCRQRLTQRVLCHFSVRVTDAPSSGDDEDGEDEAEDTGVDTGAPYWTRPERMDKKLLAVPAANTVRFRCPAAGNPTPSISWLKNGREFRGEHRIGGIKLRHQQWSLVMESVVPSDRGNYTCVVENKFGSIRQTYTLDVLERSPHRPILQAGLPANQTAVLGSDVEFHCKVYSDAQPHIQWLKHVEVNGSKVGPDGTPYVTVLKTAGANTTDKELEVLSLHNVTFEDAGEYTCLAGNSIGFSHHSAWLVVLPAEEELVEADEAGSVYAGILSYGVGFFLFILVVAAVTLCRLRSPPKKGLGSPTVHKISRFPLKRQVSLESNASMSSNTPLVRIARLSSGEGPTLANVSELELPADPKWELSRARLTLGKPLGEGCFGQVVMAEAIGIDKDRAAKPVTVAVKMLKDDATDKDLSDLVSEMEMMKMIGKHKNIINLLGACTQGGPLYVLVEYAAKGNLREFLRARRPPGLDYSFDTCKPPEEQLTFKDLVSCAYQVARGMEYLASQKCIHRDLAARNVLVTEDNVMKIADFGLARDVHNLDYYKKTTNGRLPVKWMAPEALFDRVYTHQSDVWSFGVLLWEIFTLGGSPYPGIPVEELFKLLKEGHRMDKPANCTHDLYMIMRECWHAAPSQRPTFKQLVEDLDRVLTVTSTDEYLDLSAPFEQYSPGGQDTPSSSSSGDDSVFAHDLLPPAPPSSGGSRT
Outline: as §1

NLK = molecular target: T36, NLK (Homo sapiens, UniProt Q9UBE8); conditions: 1 uM
T36 construct: purchased Ambit KINOMEscan (DiscoverX)
Outline: as §1

MARK4 = molecular target: T37, MARK4 (Homo sapiens, UniProt Q96L34); conditions: MARK4, 1 uM
T37 construct: purchased Ambit KINOMEscan (DiscoverX)
Outline: as §1

OSR1 = molecular target: T38, OSR1 (Homo sapiens, UniProt O95747); conditions: OSR1, 1 uM
T38 construct: purchased Ambit KINOMEscan (DiscoverX)
Outline: as §1

Compound | % binding compared to no inhibitor control (CAMK2D) [%] | % binding compared to no inhibitor control (ROS1) [%] | % binding compared to no inhibitor control (AURKB) [%] | % binding compared to no inhibitor control (EGFR(E746-A750del)) [%] | % binding compared to no inhibitor control (GCN2(Kin.Dom.2,S808G)) [%] | % binding compared to no inhibitor control (KIT(V559D,T670I)) [%] | % binding compared to no inhibitor control (PIK3CA(E542K)) [%] | % binding compared to no inhibitor control (PFTK1) [%] | % binding compared to no inhibitor control (ROCK2) [%] | % binding compared to no inhibitor control (HIPK1) [%] | % binding compared to no inhibitor control (EPHB2) [%] | % binding compared to no inhibitor control (DAPK2) [%] | % binding compared to no inhibitor control (PAK6) [%] | % binding compared to no inhibitor control (TXK) [%] | % binding compared to no inhibitor control (PLK1) [%] | % binding compared to no inhibitor control (DDR1) [%] | % binding compared to no inhibitor control (STK35) [%] | % binding compared to no inhibitor control (AKT2) [%] | % binding compared to no inhibitor control (JNK2) [%] | % binding compared to no inhibitor control (ERK4) [%] | also measured
COc1ccc(-c2cc3nccn3c(Nc3ncccc3C(N)=O)n2)cc1OC.Cl.Cl [BAY61-3606, 2-[7-(3,4-dimethoxyphenyl)-imidazo [1,2-c]pyrimidin-5-ylamino] nicotinamide dihydrochloride, reference compound] | 72 | 45 | 69 | 49 | 54 | 9.3 | 99 | 100 | 13 | 8.8 | 100 | 66 | 65 | 95 | 98 | 99 | 88 | 79 | 100 | 87 | % inhibition ATP binding (ROCK2; ROCK2, KINOMEscan, 1 μM): 87%; % inhibition ATP binding (HIPK1; HIPK1, KINOMEscan, 1 μM): 91.2%; % binding compared to no inhibitor control (TLK1): 89%; % binding compared to no inhibitor control (FGFR1): 93%; % binding compared to no inhibitor control (WEE1): 89%; % binding compared to no inhibitor control (EGFR): 87%; % binding compared to no inhibitor control (ZAP70): 9%; % binding compared to no inhibitor control (RIPK2): 70%; % binding compared to no inhibitor control (TNNI3K): 100%; % binding compared to no inhibitor control (LZK): 64%; % binding compared to no inhibitor control (EGFR(G719S)): 71%; % binding compared to no inhibitor control [1]: 71%; % binding compared to no inhibitor control (TAK1): 63%; % binding compared to no inhibitor control (CAMKK2): 51%; % binding compared to no inhibitor control (PRKCQ): 88%; % binding compared to no inhibitor control (CSNK1G3): 81%; % binding compared to no inhibitor control (FGFR3): 100%; % binding compared to no inhibitor control (NLK): 88%; % binding compared to no inhibitor control (MARK4): 88%; % binding compared to no inhibitor control (OSR1): 100%
COc1ccccc1Nc1nc(-c2ccc(OC)c(OC)c2)cc2nccn12 [BAY derivative 6] | 100 | 36 | 68 | 75 | 99 | 87 | 100 | 100 | 96 | 85 | 99 | 100 | 99 | 78 | 100 | 100 | 91 | 100 | 100 | 100 | % binding compared to no inhibitor control (TLK1): 57%; % binding compared to no inhibitor control (FGFR1): 100%; % binding compared to no inhibitor control (WEE1): 100%; % binding compared to no inhibitor control (EGFR): 100%; % binding compared to no inhibitor control (ZAP70): 100%; % binding compared to no inhibitor control (RIPK2): 100%; % binding compared to no inhibitor control (TNNI3K): 100%; % binding compared to no inhibitor control (LZK): 100%; % binding compared to no inhibitor control (EGFR(G719S)): 100%; % binding compared to no inhibitor control [1]: 48%; % binding compared to no inhibitor control (TAK1): 96%; % binding compared to no inhibitor control (CAMKK2): 100%; % binding compared to no inhibitor control (PRKCQ): 100%; % binding compared to no inhibitor control (CSNK1G3): 100%; % binding compared to no inhibitor control (FGFR3): 100%; % binding compared to no inhibitor control (NLK): 82%; % binding compared to no inhibitor control (MARK4): 75%; % binding compared to no inhibitor control (OSR1): 100%
